Measured values: patent US11560368B2, “Apoptosis signal-regulating kinase 1 inhibitors and methods of use thereof” (Enanta Pharmaceuticals, Inc., priority 2017, dated 2023)

Biological target: ASK1 kinase (Homo sapiens (Human), UniProt Q99683)
Assay: ASK1 kinase inhibition, HTRF KinEASE-STK TR-FRET assay
Format: biochemical
Details: 5 nM ASK1, 1 uM STK3 peptide substrate, 100 uM ATP, 3 hours
Description: The ability (IC50) of compounds to inhibit ASK1 kinase activity was determined by HTRF® KinEASE™ Assay System.
ASK1 was purchased from Thermofisher (Catalogue # PV4011), ATP was purchased from Sigma (Catalogue # A7699), HTRF® KinEASE™ Assay System was obtained from Cisbio (Bedford, Mass.). ½ A Area plate was purchased from Perkin Elmer (Catalogue # #6005560). HTRF® KinEASE™-STK is a generic method for measuring serine/threonine kinase activities using a time-resolved fluorescence resonance energy transfer (TR-FRET) immunoassay. The IC50 value for each compound was determined in the presence of compound (various concentration from 0 to 10 μM) and a fixed amount of ATP and peptide substrates. The test compound, 1 uM STK3 peptide substrate, and 5 nM of ASK1 kinase are incubated with kinase reaction buffer containing 50 mM HEPES pH 7.5, 0.01% BRU-35, 10 mM MgCl2, and 1 mM EGTA for 30 minutes. 100 uM ATP is added to start kinase reaction and incubated for 3 hours. The STK3-antibody labeled with Eu^3+-Cryptate and 125 nM streptavidin-XL665 are mixed in a single addition with stop reagents provided by the Cisbio kit used to stop the kinase reaction. Fluorescence is detected using an Envision Multilabeled 2014 reader from PerkinElmer. The Fluorescence is measured at 615 nm (Cryptate) and 665 nm (XL665) and a ratio of 665 nm/615 nm is calculated for each well. […] IC50 was determined by XLfit 5.3. […]

Sequence of ASK1 kinase (Q99683 whole entry): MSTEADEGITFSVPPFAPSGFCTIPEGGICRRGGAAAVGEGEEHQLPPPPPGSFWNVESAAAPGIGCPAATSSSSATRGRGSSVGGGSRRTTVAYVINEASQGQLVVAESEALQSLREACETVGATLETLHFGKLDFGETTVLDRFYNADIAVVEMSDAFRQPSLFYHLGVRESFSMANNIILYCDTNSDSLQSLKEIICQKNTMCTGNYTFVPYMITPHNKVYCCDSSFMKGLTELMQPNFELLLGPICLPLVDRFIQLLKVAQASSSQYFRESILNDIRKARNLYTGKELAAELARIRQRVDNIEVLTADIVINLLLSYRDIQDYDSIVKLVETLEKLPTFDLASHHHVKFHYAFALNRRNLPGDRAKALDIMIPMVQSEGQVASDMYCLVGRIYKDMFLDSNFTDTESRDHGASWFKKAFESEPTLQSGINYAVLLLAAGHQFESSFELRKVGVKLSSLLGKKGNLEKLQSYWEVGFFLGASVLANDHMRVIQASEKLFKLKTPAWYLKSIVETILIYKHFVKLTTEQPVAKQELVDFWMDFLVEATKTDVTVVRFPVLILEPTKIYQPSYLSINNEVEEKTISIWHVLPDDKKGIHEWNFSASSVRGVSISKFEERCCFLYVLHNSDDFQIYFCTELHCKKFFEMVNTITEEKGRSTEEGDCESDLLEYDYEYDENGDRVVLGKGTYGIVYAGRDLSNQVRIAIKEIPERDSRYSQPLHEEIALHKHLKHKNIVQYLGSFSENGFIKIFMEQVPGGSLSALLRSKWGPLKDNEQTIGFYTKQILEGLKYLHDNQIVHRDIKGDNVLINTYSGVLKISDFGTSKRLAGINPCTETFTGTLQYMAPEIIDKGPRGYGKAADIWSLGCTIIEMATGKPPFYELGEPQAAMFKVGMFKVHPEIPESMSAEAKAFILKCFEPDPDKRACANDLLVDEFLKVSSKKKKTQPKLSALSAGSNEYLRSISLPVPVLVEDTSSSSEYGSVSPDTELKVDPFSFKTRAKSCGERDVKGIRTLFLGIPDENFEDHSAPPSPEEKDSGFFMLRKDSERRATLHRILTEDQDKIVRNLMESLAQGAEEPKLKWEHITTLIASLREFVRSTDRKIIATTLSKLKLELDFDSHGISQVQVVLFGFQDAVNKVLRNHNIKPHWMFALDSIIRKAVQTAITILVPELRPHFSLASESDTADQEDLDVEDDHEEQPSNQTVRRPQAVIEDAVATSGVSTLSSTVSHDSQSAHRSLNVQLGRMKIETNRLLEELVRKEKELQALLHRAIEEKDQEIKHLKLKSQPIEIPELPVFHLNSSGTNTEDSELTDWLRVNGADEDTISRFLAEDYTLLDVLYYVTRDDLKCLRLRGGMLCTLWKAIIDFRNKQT

- IC50: 100 to 1000 nM
SMILES: Cc1cc(F)c(C(=O)Nc2cccc(-c3nnnn3C(C)C)n2)cc1-n1cnc(C(F)(F)F)c1 [Example 2b]
